Values quoted from earlier work as cited in patent US9272049B2, “Methods of stimulating fat mobilization using a polymer conjugated polyphenol” (NANOPHARMACEUTICALS LLC, priority 2005, dated 2016).

Key:
[1] = test system: insulin-sensitive mammalian cell lines; settings: several insulin-sensitive mammalian cell lines

Oc1ccc(C=Cc2cc(O)cc(O)c2)cc1 [Resveratrol]
fat accumulation [1]: reduce fat accumulation
fat accumulation (C. elegans): reduce fat accumulation
